Experimental data as given in ChEMBL document CHEMBL6096673, “In Pursuit of Lead Innovation: Pharmaceutically Important and Distinct Amide-Free Succinate Dehydrogenase Inhibitors” (J Med Chem, 2025).
pIC50, pKi: −log10 of the molar value. In brackets after ≈: the same amount, converted by molar mass.

Columns and labels:
Rhizoctonia solani = assay: Antifungal activity against Rhizoctonia solani; type: functional, organism-based
Liver carboxylesterase = target: T1, Liver carboxylesterase (Sus scrofa, UniProt Q29550); assay: Inhibition of porcine liver carboxylesterase
T1 sequence (Q29550 whole entry): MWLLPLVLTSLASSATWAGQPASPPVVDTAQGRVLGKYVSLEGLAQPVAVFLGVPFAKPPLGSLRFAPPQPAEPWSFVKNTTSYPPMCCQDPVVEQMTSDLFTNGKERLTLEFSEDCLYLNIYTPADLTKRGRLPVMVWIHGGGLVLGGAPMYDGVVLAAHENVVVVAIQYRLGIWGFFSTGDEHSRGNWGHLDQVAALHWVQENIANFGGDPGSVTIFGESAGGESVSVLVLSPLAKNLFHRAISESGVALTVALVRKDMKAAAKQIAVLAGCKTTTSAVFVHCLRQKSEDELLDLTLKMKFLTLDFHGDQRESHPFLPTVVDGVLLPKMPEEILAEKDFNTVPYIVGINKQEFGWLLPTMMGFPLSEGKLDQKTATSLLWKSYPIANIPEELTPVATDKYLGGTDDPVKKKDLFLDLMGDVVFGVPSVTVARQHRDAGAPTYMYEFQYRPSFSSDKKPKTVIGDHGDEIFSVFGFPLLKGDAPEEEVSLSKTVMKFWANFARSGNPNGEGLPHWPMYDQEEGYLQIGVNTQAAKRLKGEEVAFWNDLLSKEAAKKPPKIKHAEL

[1] = Binding affinity to carboxylesterase (unknown origin) assessed as inhibition constant by fluorescence analysis; parameters: species or system Homo sapiens
Sclerotinia sclerotiorum [2] = assay: Antifungal activity against Sclerotinia sclerotiorum; type: functional, organism-based
[3] = tested on: Trichophyton mentagrophytes; assay: Antifungal activity against Trichophyton mentagrophytes; type: functional, organism-based
Plasmodium falciparum = assay: Antiplasmodial activity against Plasmodium falciparum; type: functional, organism-based
Sclerotinia sclerotiorum [4] = assay: Antifungal activity against Sclerotinia sclerotiorum assessed as inhibition of fungal growth; type: functional, organism-based
Fusarium graminearum = assay: Antifungal activity against Gibberella zeae; type: functional, organism-based
Alternaria solani = assay: Antifungal activity against Alternaria solani; type: functional, organism-based
Botrytis cinerea = assay: Antifungal activity against Botrytis cinerea; type: functional, organism-based

Cn1cc(/C=N\Oc2cccc(F)c2)c(C(F)F)n1
IC50 (Rhizoctonia solani): 1.35 µg/mL (≈ 5.01 µM)

C=CCC/C=C\C=C/CCCCCCC1CC[C@@H]([C@@H]2CC[C@@H](CC(=O)OC)OO2)O1 (single isomer, unassigned)
pIC50 (Liver carboxylesterase): > 6.00

O=C(CC(=O)C(F)(F)F)c1cccs1
pKi [1]: 6.21

Cn1cc(/C=N/Oc2cccc(I)c2)c(C(F)F)n1
IC50 (Rhizoctonia solani): 1.57 µg/mL (≈ 4.16 µM)

COc1nc(O)c(C(=O)CC[C@H](C)[C@@H](Cl)CCl)c(O)c1OC
pIC50 (Liver carboxylesterase): 6.50

CCOC(=O)C(C#N)C(CC(=O)c1ccc(Br)cc1)c1ccco1 (configuration not stated)
EC50 (Sclerotinia sclerotiorum [2]): 3.3 µg/mL (≈ 8.46 µM)

COc1nc(O)c(C(=O)[C@@H](C)C[C@@H](C)[C@@H](Cl)CCl)c(O)c1OC
pIC50 (Liver carboxylesterase): 8.15

CC[C@@H](C)C[C@H](C)C(=O)c1c(O)nc(OC)c(OC)c1O
pIC50 (Liver carboxylesterase): 5.68

Cn1cc(/C=N\Oc2cccc(I)c2)c(C(F)F)n1
IC50 (Rhizoctonia solani): 1.43 µg/mL (≈ 3.79 µM)

Cc1cc(O)c2c(c1)O[C@@]1(C)CC[C@H]3C(C)(C)CCC[C@]34CO[C@@H]2[C@H]41 [SICCANIN]
IC50 [3]: 0.3 µg/mL (≈ 0.876 µM) | pIC50 (Plasmodium falciparum): 5.08

COc1cc(-c2ccc(Br)o2)cc(-c2ccc(Br)cc2)n1
IC50 (Sclerotinia sclerotiorum [4]): 1.15 µg/mL (≈ 2.81 µM)

C=CCC/C=C\C=C/CCCCCC[C@H]1CC[C@H]([C@@H]2CC[C@@H](CC(=O)OC)OO2)O1
pIC50 (Liver carboxylesterase): > 6.00

Fc1ccc(C2C=C(c3ccc4c(c3)OCO4)NC(=S)N2)cc1 (configuration not stated)
EC50 (Fusarium graminearum): 0.57 µg/mL (≈ 1.74 µM) | EC50 (Alternaria solani): 0.07 µg/mL (≈ 0.213 µM) | EC50 (Botrytis cinerea): 0.44 µg/mL (≈ 1.34 µM)

Cc1ccc(-c2cc(-c3ccc(Cl)cc3)nc(-n3cccn3)n2)o1
EC50 (Sclerotinia sclerotiorum [2]): 0.08 µg/mL (≈ 0.238 µM)

COC(=O)C1=C(C)OC(N)=C(C#N)C1c1ccc(Cl)s1 (configuration not stated)
IC50 (Rhizoctonia solani): 1.06 µg/mL (≈ 3.41 µM)

Cn1cc(/C=N\Oc2cccc(Br)c2)c(C(F)F)n1
IC50 (Rhizoctonia solani): 0.21 µg/mL (≈ 0.636 µM)

COc1nc(O)c(C(=O)[C@@H](C)C[C@H](C)[C@H](Cl)CCl)c(O)c1OC
pIC50 (Liver carboxylesterase): 7.65

COc1nc(O)c(C(=O)[C@H](C)C[C@H](C)[C@@H](Cl)CCl)c(O)c1OC
pIC50 (Liver carboxylesterase): 5.70

Cc1ccc(-c2cc(-c3ccco3)nc(C)n2)cc1
EC50 (Sclerotinia sclerotiorum [2]): 0.07 µg/mL (≈ 0.28 µM)

Cn1cc(/C=N/Oc2cccc(F)c2)c(C(F)F)n1
IC50 (Rhizoctonia solani): 2.94 µg/mL (≈ 10.9 µM)

COc1nc(O)c(C(=O)[C@@H](C)C[C@H](C)[C@H](C)Cl)c(O)c1OC
pIC50 (Liver carboxylesterase): 6.96

O=C(NCCc1ncc(C(F)(F)F)cc1Cl)c1ccccc1C(F)(F)F [FLUOPYRAM]
pIC50 (Liver carboxylesterase): > 6.00

COc1[nH]c(=O)c(C(=O)[C@@H](C)C[C@H](C)[C@@H](Cl)CCl)c(O)c1OC [ATPENIN A5]
pIC50 (Liver carboxylesterase): 7.85

Cn1cc(/C=N/Oc2cccc(Br)c2)c(C(F)F)n1
IC50 (Rhizoctonia solani): 4.53 µg/mL (≈ 13.7 µM)
